From paper PMC10989506, “Cell penetration of oxadiazole-containing macrocycles” (RSC Chemical Biology, 2024)
Values joined by “and” are separate entries in the source; they are usually repeats but may differ in a detail not shown here. Identical values can stand only once. *1 amine or outer side, *2 acyl side, *3 side chain or, on linkers, in order; H or OH if unused. Where a SMILES comes first, the peptide text is derived from it. Side-chain parts run from the residue outwards. The star is where a group is joined. NH(CH2CH2O)2(CH2)6Cl = ClCCCCCCOCCOCCN*; Suc = O=C(CCC(=O)[*:2])[*:1]

Experiments:
[1] = PAMPA; for −log Pe: pH 7.4
Protocol: (§1) 5 Parallel Artificial Membrane Permeability Assay (PAMPA)
(§2) PAMPA analysis was conducted following a procedure reported by Lokey and coworkers. 9 Each measurement was conducted at room temperature in an insulated polystyrene box to maintain a constant internal temperature. Measurements were taken in triplicate, and the reported permeability values are the average value over the three runs. Carbamaz epine was included in the stock solution of each cyclic peptide to verify the integrity of the membrane as an internal standard.
(§3) Preparation of stock solution for donor well: Stock solutions were prepared by dissolving the […]
cyclic peptide (0.5 mM) and carbamazepine (0.5 mM) (as an internal standard) in DMSO at a gross […]
concentration of 1 mM. 10 μL of this stock solution was added to 990 μL PBS buffer (pH 7.4) to […]
give a 1 mL solution (10 μM, 1% DMSO v/v) for addition to the donor plate wells.
Preparation of acceptor plate: A stock solution of 5% DMSO in PBS buffer was prepared, and […]
300μL of this solution was added to each of the acceptor wells (96-well Teflon acceptor plate […]
Preparation of donor plate: 100 mg of lethicin (90%, soybean) was suspended in n -dodecane (10 […]
mL) and sonicated to give a homogenous, clear solution. 5 μL of this solution was carefully applied […]
to the membrane in the 96-well donor plate (with 0.45 μm hydrophobic Immobilon-P membrane […]
supports (Millipore MAIPNTR10)) (with care, without touching the membrane). Shortly after (~5 - […]
15 min), 150 μL of the 10 μM stock solution of cyclic peptide and carbamazepine (prepared as […]
above) were added to the donor well. The donor plate was placed on top of the acceptor wells and […]

[2] = Relative hydrophobicity by reverse-phase HPLC retention time; format: physicochemical; conditions: C18 LC-MS, gradient 95%/5% MeCN to 100% MeCN over 15 min; measure of relative lipophilicity
Source text: To provide additional evidence for this hypothesis, we used the retention time on reverse phase HPLC as a measure of the overall relative lipophilicity. […] Overall, the more lipophilic cyclic peptides had more efficient cell penetration than the more hydrophilic ones.

[3] = tested on: HeLa cells stably expressing the HaloTag-GFP-Mito construct; test: Chloroalkane Penetration Assay (CAPA); format: cell-based
Source text: Cell-based assays such as the Caco-2 assay and Madin–Darby canine kidney cell line (MDCK) permeability assay have been employed to offer a fuller assessment of transport in vitro.[22,23] The chloroalkane penetration assay (CAPA) is a relatively recent methodology for measuring cell penetration in live cells (Fig. 1d).[24] This assay uses cells that express a modified haloalkane dehalogenase known as HaloTag that reacts rapidly, selectively, and irreversibly with small chloroalkane ligands.[25,26] CAPA measures cytosolic penetration by pulsing cells with a chloroalkane-tagged compound (ct-compound), then chasing with a chloroaklane-tagged dye (ct-dye). If the ct-compound penetrates the cell and escapes from endosomes, it reacts with HaloTag and blocks the reaction with the ct-dye in the subsequent chase step. Thus, in CAPA, cell penetration of the ct-molecule is inversely proportional to the signal from the ct-dye retained in the cells. The dose dependence of this signal can be fit to a sigmoidal curve, whose midpoint value (called the CP50) can be compared among ct-compounds as a quantitative comparison of cell penetration.[27,28] CAPA is a cost-effective and high-throughput method for measuring the cell penetration of cyclic peptides and other molecules, and it establishes penetration to the cytosol without interference from material trapped in endosomes. In this work, we use CAPA to investigate the cell penetration of Odz macrocycles.
3 Chloroalkane Penetration Assay (CAPA)
Media was aspirated and cells were
washed with serum-free media.
Lysate stability assays were performed essentially as described. 8 For lysate stability assays, HeLa

[4] = in vitro
Protocol: (1 picture or pasted object on this page, not shown here) […]
were taken at each time point and quenched in 160 μL of ice-cold methanol. Samples were spun down for 10 min at 21,000 g prior to analysis by reverse phase analytical HPLC on a C18 column.
Chromatogram peaks were integrated to measure amount of peptide remaining at each time point.
Peak volumes for each timepoint were normalized to the zero-hour timepoint to determine percentage of peptide remaining. Data presented are the average of three biological replicates performed with different lysates on different days.
as §1, §2, §3

−log Pe [1]	Structure (SMILES)	other results
7.92 ± 0.07	CC[C@H]1C2=NN=C(O2)[C@H](Cc2ccccc2)NC(=O)CNC(=O)[C@H](CCCCNC(=O)CCC(=O)NCCOCCOCCCCCCCl)NC(=O)CNC(=O)[C@@H]2CCCN21 [Compound 2]	–
7.84 ± 0.04	CC[C@H]1C2=NN=C(O2)[C@H](Cc2ccccc2)NC(=O)CNC(=O)[C@H](CC(C)C)NC(=O)[C@H](CCCCNC(=O)CCC(=O)NCCOCCOCCCCCCCl)NC(=O)[C@@H]2CCCN21 [Compound 3]	–
7.85 ± 0.052	CC[C@@H]1N[C@@H](CCCCNC(=O)CCC(=O)NCCOCCOCCCCCCCl)C(=O)NCC(=O)N[C@@H](CC(C)C)C(=O)NCC(=O)N[C@@H](Cc2ccccc2)C2=NN=C1O2 [Compound 4]	–
>8	CC[C@H]1C2=NN=C(O2)[C@H](CCCCNC(=O)CCC(=O)NCCOCCOCCCCCCCl)NC(=O)CNC(=O)[C@H](CC(C)C)NC(=O)CNC(=O)[C@@H]2CCCN21 [Compound 5]	–
>8	CC[C@H]1C2=NN=C(O2)[C@H](Cc2ccccc2)NC(=O)[C@H](CCCCNC(=O)CCC(=O)NCCOCCOCCCCCCCl)NC(=O)[C@H](CC(C)C)NC(=O)[C@H](CC(=O)O)NC(=O)[C@@H]2CCCN21 [Compound 6]	–
>8	CC[C@H]1C2=NN=C(O2)[C@H](Cc2ccccc2)NC(=O)[C@H](CCCCNC(=O)CCC(=O)NCCOCCOCCCCCCCl)NC(=O)[C@H](CC(=O)O)NC(=O)[C@H](CC(=O)O)NC(=O)[C@@H]2CCCN21 [Compound 7]	–
–	NC(=O)N1c2ccccc2C=Cc2ccccc21 [carbamazepine, reference compound]	-Log Papp [1]: 5.7–5.8

Structure (SMILES)	−log Pe [1]	other results
CC(C)C[C@@H]1NC(=O)CNC(=O)[C@@H]2CCCN2C(=O)[C@H](C)NC(=O)[C@H](Cc2ccccc2)NC(=O)[C@H](CCCCNC(=O)CCC(=O)NCCOCCOCCCCCCCl)NC1=O [Compound 8] (cyclo(PGLK([Suc-NH(CH2CH2O)2(CH2)6Cl])FA))	>8	T ret [2]: 7.95 min; cell penetration, fold worse than compound 1 ([3]; CAPA CP50 compared with compound 1): more than 20 fold; CP50 after 30 min incubation ([3]; ct-peptides incubated with cells in Opti-MEM for 30 min prior to chasing with ct-dye): 1.0 µM and 1.0 ± 0.03 µM; CP50 after 4 h incubation ([3]; ct-peptides incubated with cells in Opti-MEM for 4 h prior to chasing with ct-dye): 0.22 µM and 0.22 ± 0.02 µM; intact compound remaining in HeLa lysate ([4]; 4 h): almost no intact macrocycle; remaining at 1 h, 150 μM ([4]; human, cells or culture medium, pH 8): ~50%
